Source: ChEMBL document CHEMBL3774317, “Design and synthesis of novel tamoxifen analogues that avoid CYP2D6 metabolism” (Eur J Med Chem, 2016)

Key:
[1] = Cytotoxicity against human SF268 cells assessed as cell growth at 10^-7 M after 48 hrs by SRB assay; format: functional; details: SF-268, 48 h, read-out: Activity
[2] = Cytotoxicity against human SNB19 cells assessed as cell growth at 10^-7 M after 48 hrs by SRB assay; format: functional; details: SNB-19, 48 h, read-out: Activity
A498 = experiment: Cytotoxicity against human A498 cells assessed as cell growth at 10^-7 M after 48 hrs by SRB assay; format: functional; details: A498, 48 h, read-out: Activity
[3] = Cytotoxicity against human MOLT4 cells assessed as cell growth at 10^-6 M after 48 hrs by SRB assay; format: functional; details: MOLT-4, 48 h, read-out: Activity
[4] = Cytotoxicity against human RPMI8226 cells assessed as cell growth at 10^-6 M after 48 hrs by SRB assay; format: functional; details: RPMI-8226, 48 h, read-out: Activity
[5] = Cytotoxicity against human PC3 cells assessed as cell growth at 10^-4 M after 48 hrs by SRB assay; format: functional; details: PC-3, 48 h, read-out: Activity
[6] = Cytotoxicity against human UACC62 cells assessed as cell growth at 10^-6 M after 48 hrs by SRB assay; format: functional; details: UACC-62, 48 h, read-out: Activity
[7] = Cytotoxicity against human HCC2998 cells assessed as cell growth at 10^-8 M after 48 hrs by SRB assay; format: functional; details: HCC 2998, 48 h, read-out: Activity
MDA-MB-231 = experiment: Cytotoxicity against human MDA-MB-231 cells assessed as cell growth at 10^-8 M after 48 hrs by SRB assay; format: functional; details: MDA-MB-231, 48 h, read-out: Activity
[8] = Cytotoxicity against human Hs 578T cells assessed as cell growth at 10^-8 M after 48 hrs by SRB assay; format: functional; details: read-out: Activity
[9] = Cytotoxicity against human RPMI8226 cells assessed as cell growth at 10^-7 M after 48 hrs by SRB assay; format: functional; details: RPMI-8226, 48 h, read-out: Activity
NCI-H522 = experiment: Cytotoxicity against human NCI-H522 cells assessed as cell growth at 10^-7 M after 48 hrs by SRB assay; format: functional; details: NCI-H522, 48 h, read-out: Activity
[10] = Cytotoxicity against human OVCAR4 cells assessed as cell growth at 10^-5 M after 48 hrs by SRB assay; format: functional; details: OVCAR-4, 48 h, read-out: Activity
CCRF-CEM = experiment: Cytotoxicity against human CCRF-CEM cells assessed as cell growth at 50 nM after 48 hrs by SRB assay; format: functional; details: read-out: Activity
[11] = Cytotoxicity against human HOP92 cells assessed as cell growth at 50 nM after 48 hrs by SRB assay; format: functional; details: HOP-92, 48 h, read-out: Activity
[12] = Cytotoxicity against human HCT15 cells assessed as cell growth at 50 nM after 48 hrs by SRB assay; format: functional; details: HCT-15, 48 h, read-out: Activity
[13] = Cytotoxicity against human SF268 cells assessed as cell growth at 50 nM after 48 hrs by SRB assay; format: functional; details: SF-268, 48 h, read-out: Activity
[14] = Cytotoxicity against human SF295 cells assessed as cell growth at 50 nM after 48 hrs by SRB assay; format: functional; details: SF-295, 48 h, read-out: Activity
[15] = Cytotoxicity against human SF539 cells assessed as cell growth at 50 nM after 48 hrs by SRB assay; format: functional; details: SF-539, 48 h, read-out: Activity
[16] = Cytotoxicity against human IGROV1 cells assessed as cell growth at 50 nM after 48 hrs by SRB assay; format: functional; details: IGROV-1, 48 h, read-out: Activity
ACHN [17] = experiment: Cytotoxicity against human ACHN cells assessed as cell growth at 50 nM after 48 hrs by SRB assay; format: functional; details: read-out: Activity
[18] = Cytotoxicity against human Caki1 cells assessed as cell growth at 50 nM after 48 hrs by SRB assay; format: functional; details: CAKI-1, 48 h, read-out: Activity
[19] = Cytotoxicity against human UACC62 cells assessed as cell growth at 50 uM after 48 hrs by SRB assay; format: functional; details: UACC-62, 48 h, read-out: Activity
[20] = Metabolic stability in human hepatocytes assessed as remaining parent compound level at 10 uM measured immediately after compound addition by LC/MS analysis; format: ADME, cell-based, Hepatocyte; details: read-out: Drug metabolism
[21] = Cytotoxicity against human HOP62 cells assessed as cell growth at 0.5 uM after 48 hrs by SRB assay; format: functional; details: HOP-62, 48 h, read-out: Activity
NCI-H460 = experiment: Cytotoxicity against human NCI-H460 cells assessed as cell growth at 0.5 uM after 48 hrs by SRB assay; format: functional; details: NCI-H460, 48 h, read-out: Activity
[22] = Cytotoxicity against human HCT116 cells assessed as cell growth at 0.5 uM after 48 hrs by SRB assay; format: functional; details: HCT-116, 48 h, read-out: Activity
[23] = Cytotoxicity against human HCT15 cells assessed as cell growth at 0.5 uM after 48 hrs by SRB assay; format: functional; details: HCT-15, 48 h, read-out: Activity
[24] = Cytotoxicity against human SF295 cells assessed as cell growth at 0.5 uM after 48 hrs by SRB assay; format: functional; details: SF-295, 48 h, read-out: Activity
[25] = Cytotoxicity against human LOXIMVI cells assessed as cell growth at 0.5 uM after 48 hrs by SRB assay; format: functional; details: LOX IMVI, read-out: Activity
[26] = Cytotoxicity against human NCI-ADR-RES cells assessed as cell growth at 0.5 uM after 48 hrs by SRB assay; format: functional; details: read-out: Activity
NCI-H226 = experiment: Cytotoxicity against human NCI-H226 cells assessed as cell growth at 5 uM after 48 hrs by SRB assay; format: functional; details: NCI-H226, 48 h, read-out: Activity
NCI-H322M = experiment: Cytotoxicity against human NCI-H322M cells assessed as cell growth at 5 nM after 48 hrs by SRB assay; format: functional; details: read-out: Activity
SK-MEL-28 = experiment: Cytotoxicity against human SK-MEL-28 cells assessed as cell growth at 5 nM after 48 hrs by SRB assay; format: functional; details: SK-MEL-28, 48 h, read-out: Activity
ACHN [27] = experiment: Cytotoxicity against human ACHN cells assessed as cell growth at 5 nM after 48 hrs by SRB assay; format: functional; details: read-out: Activity
[28] = Cytotoxicity against human SF539 cells assessed as cell growth at 5 uM after 48 hrs by SRB assay; format: functional; details: SF-539, 48 h, read-out: Activity
[29] = Cytotoxicity against human SNB75 cells assessed as cell growth at 5 uM after 48 hrs by SRB assay; format: functional; details: SNB-75, 48 h, read-out: Activity
U-251 = experiment: Cytotoxicity against human U251 cells assessed as cell growth at 5 uM after 48 hrs by SRB assay; format: functional; details: U-251, 48 h, read-out: Activity
[30] = Cytotoxicity against human OVCAR4 cells assessed as cell growth at 5 uM after 48 hrs by SRB assay; format: functional; details: OVCAR-4, 48 h, read-out: Activity
[31] = Cytotoxicity against human NCI-ADR-RES cells assessed as cell growth at 5 uM after 48 hrs by SRB assay; format: functional; details: read-out: Activity
[32] = Cytotoxicity against human Caki1 cells assessed as cell growth at 5 uM after 48 hrs by SRB assay; format: functional; details: CAKI-1, 48 h, read-out: Activity
[33] = Cytotoxicity against human BT549 cells assessed as cell growth at 5 uM after 48 hrs by SRB assay; format: functional; details: BT-549, 48 h, read-out: Activity

In the case of `C/C(=C(/c1ccc(O)cc1)c1ccc(OCCN2CCCC2)cc1)c1ccccc1`, the growth at 0.1 µM [1] is reported as 94%, the growth at 0.1 µM [2] is reported as 101% and the growth at 0.1 µM (A498) is reported as 60%. The growth at 1 µM [3] was 92%, the growth at 1 µM [4] was 92% and the growth at 100 µM [5] was -96%. The growth at 1 µM [6] was 106%, the growth at 0.01 µM [7] was 100% and the growth at 0.01 µM (MDA-MB-231) was 110%. For the same compound, the growth at 0.01 µM [8] was 100%, the growth at 0.1 µM [9] was 103% and the growth at 0.1 µM (NCI-H522) was 94%. The growth at 10 µM [10] was 31%.
`CCCCCCCCCC(=O)Oc1ccc(/C(=C(/C)c2ccccc2)c2ccc(OCCN3CCCC3)cc2)cc1` gave a growth at 0.05 µM (CCRF-CEM) of 100%, a growth at 0.05 µM [11] of 83% and a growth at 0.05 µM [12] of 90%. For the same compound, the growth at 0.05 µM [13] was 97%, the growth at 0.05 µM [14] was 89% and the growth at 0.05 µM [15] was 98%. For the same compound, the growth at 0.05 µM [16] was 95%, the growth at 0.05 µM (ACHN [17]) was 96% and the growth at 0.05 µM [18] was 82%. For the same compound, the growth at 50 µM [19] was -90%, the remaining at 0 h, 10 µM [20] was 29% and the growth at 0.5 µM [21] was 81%. For the same compound, the growth at 0.5 µM (NCI-H460) was 78%, the growth at 0.5 µM [22] was 71% and the growth at 0.5 µM [23] was 58%. For the same compound, the growth at 0.5 µM [24] was 79%, the growth at 0.5 µM [25] was 62% and the growth at 0.5 µM [26] was 73%. It also gave a growth at 5 µM (NCI-H226) of 97%, a growth at 0.005 µM (NCI-H322M) of 94% and a growth at 0.005 µM (SK-MEL-28) of 104%. For the same compound, the growth at 0.005 µM (ACHN [27]) was 101%, the growth at 5 µM [28] was 92% and the growth at 5 µM [29] was 69%. For the same compound, the growth at 5 µM (U-251) was 86%, the growth at 5 µM [30] was 78% and the growth at 5 µM [31] was 82%. The growth at 5 µM [32] was 71% and the growth at 5 µM [33] was 85%.
